In patent US9249145B2, “Heterocyclic derivatives of pyrazol-4-yl-pyrrolo[2,3-d]pyrimidines as janus kinase inhibitors” (Incyte Holdings Corporation, priority 2009, dated 2016) one finds IC50 data, which are given here for 26 compounds.

What is called IC50 is the point on the concentration scale where inhibition reaches its midpoint.

For experiment [1], the target named is T1, human JAK1 (a.a. 837-1142) (Homo sapiens, UniProt P23458).
T1 construct: The catalytic domains of human JAK1 (a.a. 837-1142); His tag (N); made in house; host or cells: insect cells (baculovirus)
T1 sequence (P23458 849-1154): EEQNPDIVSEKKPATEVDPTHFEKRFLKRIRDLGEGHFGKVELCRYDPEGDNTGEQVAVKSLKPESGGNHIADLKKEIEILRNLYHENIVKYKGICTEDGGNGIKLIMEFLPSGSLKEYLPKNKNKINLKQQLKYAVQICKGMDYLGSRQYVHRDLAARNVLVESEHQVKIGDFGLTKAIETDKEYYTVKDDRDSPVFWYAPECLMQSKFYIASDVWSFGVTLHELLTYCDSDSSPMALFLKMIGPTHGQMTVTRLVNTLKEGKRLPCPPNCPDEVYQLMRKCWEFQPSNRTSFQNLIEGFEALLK
Put plainly: In vitro JAK kinase assay (HTRF, phosphorylation of biotinylated peptide), JAK1. It counts as biochemical. The note with it: 1 mM ATP; Examples 92-162; read-out: JAK1 IC50 (nM) @ 1 mM ATP. The procedure, abridged:
(§1)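 IC50 from HTRF detection (Eu-Py20 antibody, SA-APC, 40 min) after EDTA quench. Reactions ran 1 h at room temperature with 500 nM biotinylated peptide in Tris pH 7.8 buffer with NaCl, DTT, BSA; ATP 90 μM for JAK1, 30 μM for JAK2 (Km), or 1 mM. Enzymes: His-tagged catalytic domains from insect cells.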

In the next experiment the target is T2, Jak2 (a.a. 828-1132) (Homo sapiens, UniProt O60674).
T2 construct: Jak2 (a.a. 828-1132); His tag (N); made in house; host or cells: insect cells (baculovirus)
T2 sequence (O60674 828-1132): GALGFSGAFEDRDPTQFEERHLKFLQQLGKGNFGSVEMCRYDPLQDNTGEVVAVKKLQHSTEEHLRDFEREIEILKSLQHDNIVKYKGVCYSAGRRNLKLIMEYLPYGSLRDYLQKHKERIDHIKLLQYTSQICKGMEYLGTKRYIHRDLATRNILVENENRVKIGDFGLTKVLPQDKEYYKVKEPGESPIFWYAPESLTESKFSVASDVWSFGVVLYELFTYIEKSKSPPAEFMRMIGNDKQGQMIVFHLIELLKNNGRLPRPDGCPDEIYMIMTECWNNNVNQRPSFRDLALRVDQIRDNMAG
The experiment in a line: In vitro JAK kinase assay (HTRF, phosphorylation of biotinylated peptide), JAK2. It is filed as biochemical. The note with it: 1 mM ATP; Examples 92-162; read-out: JAK2 IC50 (nM) @ 1 mM ATP. The procedure, abridged: as §1
For orientation: In TR-FRET formats the signal depends on donor and acceptor labels being close together.

Molecules are shown by their SMILES.

`N#CCC(CN1CCCN(S(=O)(=O)c2ccccc2C(F)(F)F)CC1)n1cc(-c2ncnc3[nH]ccc23)cn1` (stereo not shown) [Example 109, 3-[4-(7H-pyrrolo[2,3-d]pyrimidin-4-yl)-1H-pyrazol-1-yl]-4-(4-{[2-(trifluoromethyl)phenyl]sulfonyl}-1,4-diazepan-1-yl)butanenitrile]: the IC50 in experiment [1] was 20 to 50 nM; at Jak2 (a.a. 828-1132) it was more than 100 nM.

`N#CCC(CN1CCCN(S(=O)(=O)c2ccccc2OC(F)(F)F)CC1)n1cc(-c2ncnc3[nH]ccc23)cn1` (stereo not shown) [Example 110, 3-[4-(7H-pyrrolo[2,3-d]pyrimidin-4-yl)-1H-pyrazol-1-yl]-4-(4-{[2-(trifluoromethoxy)phenyl]sulfonyl}-1,4-diazepan-1-yl)butanenitrile]: the IC50 is 20 to 50 nM in experiment [1] and more than 100 nM at Jak2 (a.a. 828-1132).

As to `COc1ccc(OC)c(S(=O)(=O)N2CCCN(CC(CC#N)n3cc(-c4ncnc5[nH]ccc45)cn3)CC2)c1` (stereo not shown) [Example 111, 4-{4-[(2,5-dimethoxyphenyl)sulfonyl]-1,4-diazepan-1-yl}-3-[4-(7H-pyrrolo[2,3-d]pyrimidin-4-yl)-1H-pyrazol-1-yl]butanenitrile], the IC50 in experiment [1] lay in the range of 20 to 50 nM; at Jak2 (a.a. 828-1132), 50 to 100 nM.

With `COc1ccc(Cl)cc1S(=O)(=O)N1CCCN(CC(CC#N)n2cc(-c3ncnc4[nH]ccc34)cn2)CC1` (stereo not shown) [Example 112], the IC50 was less than 20 nM in experiment [1] and 20 to 50 nM on Jak2 (a.a. 828-1132).

Turning to `N#CCC(CN1CCCN(S(=O)(=O)c2ccccc2Oc2ccccc2)CC1)n1cc(-c2ncnc3[nH]ccc23)cn1` (stereo not shown) [Example 113, 4-{4-[(2-phenoxyphenyl)sulfonyl]-1,4-diazepan-1-yl}-3-[4-(7H-pyrrolo[2,3-d]pyrimidin-4-yl)-1H-pyrazol-1-yl]butanenitrile], the IC50 was 20 to 50 nM in experiment [1] and more than 100 nM on Jak2 (a.a. 828-1132).

For `COc1ccc(Br)cc1S(=O)(=O)N1CCCN(CC(CC#N)n2cc(-c3ncnc4[nH]ccc34)cn2)CC1` (stereo not shown) [Example 114, 4-{4-[(5-bromo-2-methoxyphenyl)sulfonyl]-1,4-diazepan-1-yl}-3-[4-(7H-pyrrolo[2,3-d]pyrimidin-4-yl)-1H-pyrazol-1-yl]butanenitrile], the IC50 in experiment [1] is 20 to 50 nM; at Jak2 (a.a. 828-1132), 50 to 100 nM.

As to `CCC(CN1CCN(S(=O)(=O)c2ccn(C)n2)CC1)n1cc(-c2ncnc3[nH]ccc23)cn1` (stereo not shown) [Example 115, 4-{1-[1-({4-[(1-methyl-1H-pyrazol-3-yl)sulfonyl]piperazin-1-yl}methyl)propyl]-1H-pyrazol-4-yl}-7H-pyrrolo[2,3-d]pyrimidine], the IC50 in experiment [1] was less than 20 nM; on Jak2 (a.a. 828-1132) it was 20 to 50 nM.

With `CCC(CN1CCN(C(=O)c2ccc(F)cc2)CC1)n1cc(-c2ncnc3[nH]ccc23)cn1` (stereo not shown) [Example 116, (4-(2-(4-(7H-pyrrolo[2,3-d]pyrimidin-4-yl)-1H-pyrazol-1-yl)butyl)piperazin-1-yl)(4-fluorophenyl)methanone], the IC50 is 20 to 50 nM in experiment [1] and more than 100 nM at Jak2 (a.a. 828-1132).

For the compound `CCC(CN1CCN(C(=O)c2ccccc2O)CC1)n1cc(-c2ncnc3[nH]ccc23)cn1` (stereo not shown) [Example 117, 2-[(4-{2-[4-(7H-pyrrolo[2,3-d]pyrimidin-4-yl)-1H-pyrazol-1-yl]butyl}piperazin-1-yl)carbonyl]phenol], the results for the IC50 (in experiment [1]; at Jak2 (a.a. 828-1132)) were 20 to 50 nM and 50 to 100 nM, respectively.

In the case of `CCC(CN1CCN(C(=O)c2ccc(F)cc2F)CC1)n1cc(-c2ncnc3[nH]ccc23)cn1` (stereo not shown) [Example 118, (4-(2-(4-(7H-pyrrolo[2,3-d]pyrimidin-4-yl)-1H-pyrazol-1-yl)butyl)piperazin-1-yl)(2,4-difluorophenyl)methanone], the IC50 in experiment [1] was less than 20 nM; on Jak2 (a.a. 828-1132), 20 to 50 nM.

For `CCC(CN1CCN(C(=O)c2cc(F)ccc2F)CC1)n1cc(-c2ncnc3[nH]ccc23)cn1` (stereo not shown) [Example 119, (4-(2-(4-(7H-pyrrolo[2,3-d]pyrimidin-4-yl)-1H-pyrazol-1-yl)butyl)piperazin-1-yl)(2,5-difluorophenyl)methanone], the IC50 in experiment [1] was 20 to 50 nM; at Jak2 (a.a. 828-1132), 50 to 100 nM.

Regarding `CCC(CN1CCN(C(=O)c2cccc(F)c2F)CC1)n1cc(-c2ncnc3[nH]ccc23)cn1` (stereo not shown) [Example 120, (4-(2-(4-(7H-pyrrolo[2,3-d]pyrimidin-4-yl)-1H-pyrazol-1-yl)butyl)piperazin-1-yl)(2,3-difluorophenyl)methanone], the IC50 fell in the range of 20 to 50 nM in experiment [1] and 50 to 100 nM on Jak2 (a.a. 828-1132).

In the case of `CCC(CN1CCN(C(=O)c2cc(F)cc(F)c2)CC1)n1cc(-c2ncnc3[nH]ccc23)cn1` (stereo not shown) [Example 121, (4-(2-(4-(7H-pyrrolo[2,3-d]pyrimidin-4-yl)-1H-pyrazol-1-yl)butyl)piperazin-1-yl)(3,5-difluorophenyl)methanone], the IC50 in experiment [1] was 20 to 50 nM; at Jak2 (a.a. 828-1132), more than 100 nM.

For `CCC(CN1CCN(C(=O)c2ccc(O)cc2Cl)CC1)n1cc(-c2ncnc3[nH]ccc23)cn1` (stereo not shown) [Example 122, (4-(2-(4-(7H-pyrrolo[2,3-d]pyrimidin-4-yl)-1H-pyrazol-1-yl)butyl)piperazin-1-yl)(2-chloro-4-hydroxyphenyl)methanone], the IC50 is less than 20 nM in experiment [1] and 50 to 100 nM at Jak2 (a.a. 828-1132).

In the case of `CCC(CN1CCN(C(=O)c2ccc(O)cc2F)CC1)n1cc(-c2ncnc3[nH]ccc23)cn1` (stereo not shown) [Example 123, (4-(2-(4-(7H-pyrrolo[2,3-d]pyrimidin-4-yl)-1H-pyrazol-1-yl)butyl)piperazin-1-yl)(2-fluoro-4-hydroxyphenyl)methanone], the IC50 (in experiment [1]; on Jak2 (a.a. 828-1132)) was less than 20 nM in each case.

Take `CCC(CN1CCN(C(=O)c2ccc(Cl)cc2F)CC1)n1cc(-c2ncnc3[nH]ccc23)cn1` (stereo not shown) [Example 124, (4-(2-(4-(7H-pyrrolo[2,3-d]pyrimidin-4-yl)-1H-pyrazol-1-yl)butyl)piperazin-1-yl)(4-chloro-2-fluorophenyl)methanone]: the IC50 in experiment [1] was less than 20 nM; at Jak2 (a.a. 828-1132), 20 to 50 nM.

Turning to `CCC(CN1CCN(C(=O)c2ccc(F)cc2OC)CC1)n1cc(-c2ncnc3[nH]ccc23)cn1` (stereo not shown) [Example 125, (4-(2-(4-(7H-pyrrolo[2,3-d]pyrimidin-4-yl)-1H-pyrazol-1-yl)butyl)piperazin-1-yl)(4-fluoro-2-methoxyphenyl)methanone], the IC50 is 20 to 50 nM in experiment [1] and more than 100 nM at Jak2 (a.a. 828-1132).

In the case of `CCC(CN1CCN(C(=O)c2cccs2)CC1)n1cc(-c2ncnc3[nH]ccc23)cn1` (stereo not shown) [Example 126, (4-(2-(4-(7H-pyrrolo[2,3-d]pyrimidin-4-yl)-1H-pyrazol-1-yl)butyl)piperazin-1-yl)(thiophen-2-yl)methanone], the IC50 in experiment [1] is 20 to 50 nM; on Jak2 (a.a. 828-1132) it was more than 100 nM.

Take `CCC(CN1CCN(S(=O)(=O)c2ccccc2)CC1)n1cc(-c2ncnc3[nH]ccc23)cn1` (stereo not shown) [Example 127, 4-(1-(1-(4-(phenylsulfonyl)piperazin-1-yl)butan-2-yl)-1H-pyrazol-4-yl)-7H-pyrrolo[2,3-d]pyrimidine]: the IC50 in experiment [1] was less than 20 nM; at Jak2 (a.a. 828-1132) it was 20 to 50 nM.

As for `CCC(CN1CCN(S(=O)(=O)c2ccccc2C#N)CC1)n1cc(-c2ncnc3[nH]ccc23)cn1` (stereo not shown) [Example 128, 2-(4-(2-(4-(7H-pyrrolo[2,3-d]pyrimidin-4-yl)-1H-pyrazol-1-yl)butyl)piperazin-1-ylsulfonyl)benzonitrile], the IC50 was less than 20 nM in experiment [1] and 50 to 100 nM on Jak2 (a.a. 828-1132).

As to `CCC(CN1CCN(S(=O)(=O)c2ccc(C#N)cc2)CC1)n1cc(-c2ncnc3[nH]ccc23)cn1` (stereo not shown) [Example 129, 4-(4-(2-(4-(7H-pyrrolo[2,3-d]pyrimidin-4-yl)-1H-pyrazol-1-yl)butyl)piperazin-1-ylsulfonyl)benzonitrile], the IC50 is 20 to 50 nM in experiment [1] and 50 to 100 nM at Jak2 (a.a. 828-1132).

Consider `CCC(CN1CCN(S(=O)(=O)c2ccccc2C(F)(F)F)CC1)n1cc(-c2ncnc3[nH]ccc23)cn1` (stereo not shown) [Example 130, 4-(1-(1-(4-(2-(trifluoromethyl)phenylsulfonyl)piperazin-1-yl)butan-2-yl)-1H-pyrazol-4-yl)-7H-pyrrolo[2,3-d]pyrimidine], for which the IC50 in experiment [1] is less than 20 nM; at Jak2 (a.a. 828-1132), 50 to 100 nM.

In the case of `CCC(CN1CCN(S(=O)(=O)c2cccc(C)n2)CC1)n1cc(-c2ncnc3[nH]ccc23)cn1` (stereo not shown) [Example 131, 4-(1-(1-(4-(6-methylpyridin-2-ylsulfonyl)piperazin-1-yl)butan-2-yl)-1H-pyrazol-4-yl)-7H-pyrrolo[2,3-d]pyrimidine], the IC50 is less than 20 nM in experiment [1] and 20 to 50 nM at Jak2 (a.a. 828-1132).

For the compound `CCC(CN1CCN(S(=O)(=O)c2ccccc2Cl)CC1)n1cc(-c2ncnc3[nH]ccc23)cn1` (stereo not shown) [Example 132, 4-(1-(1-(4-(2-chlorophenylsulfonyl)piperazin-1-yl)butan-2-yl)-1H-pyrazol-4-yl)-7H-pyrrolo[2,3-d]pyrimidine], the IC50 in experiment [1] is less than 20 nM; on Jak2 (a.a. 828-1132), 20 to 50 nM.

As for `CCC(CN1CCN(S(=O)(=O)c2cn(C)nc2C(F)(F)F)CC1)n1cc(-c2ncnc3[nH]ccc23)cn1` (stereo not shown) [Example 133, 4-(1-(1-(4-(1-methyl-3-(trifluoromethyl)-1H-pyrazol-4-ylsulfonyl)piperazin-1-yl)butan-2-yl)-1H-pyrazol-4-yl)-7H-pyrrolo[2,3-d]pyrimidine], the figures for the IC50 (in experiment [1]; at Jak2 (a.a. 828-1132)) were 20 to 50 nM and more than 100 nM, respectively.

On to `CCC(CN1CCN(S(=O)(=O)c2cccs2)CC1)n1cc(-c2ncnc3[nH]ccc23)cn1` (stereo not shown) [Example 134, 4-(1-(1-(4-(thiophen-2-ylsulfonyl)piperazin-1-yl)butan-2-yl)-1H-pyrazol-4-yl)-7H-pyrrolo[2,3-d]pyrimidine], for which the figures for the IC50 (in experiment [1]; at Jak2 (a.a. 828-1132)) were less than 20 nM and 20 to 50 nM, respectively.
